Data as given in patent US20100152141A1, “COMBINATIONS COMPRISING 5HT6 MODULATORS AND CHOLINESTERASE INHIBITORS” (EPIX DELAWARE, INC, priority 2006, published 2010).

Legend:
[1] = tested on: adult male Lister hooded rats; assay: novel object discrimination (NOD) task, natural forgetting with 4 h inter-trial interval; assay type: in vivo, rat
Method: NOD testing was performed as described by King et al. (2004 Neuropharmacol. 47 195), and used five separate groups (n=12) of adult male Lister hooded rats (145-235 g). Within each group rats were tested on 3-4 occasions (at one-week intervals) to receive all possible treatment combinations and serve as their own controls.

5-HT6 receptor = 5-HT6 receptor (Homo sapiens, UniProt P50406); assay: 5-HT6 receptor affinity (Ki) of Compound A; assay type: binding
5-HT6 receptor, sequence (P50406 whole entry): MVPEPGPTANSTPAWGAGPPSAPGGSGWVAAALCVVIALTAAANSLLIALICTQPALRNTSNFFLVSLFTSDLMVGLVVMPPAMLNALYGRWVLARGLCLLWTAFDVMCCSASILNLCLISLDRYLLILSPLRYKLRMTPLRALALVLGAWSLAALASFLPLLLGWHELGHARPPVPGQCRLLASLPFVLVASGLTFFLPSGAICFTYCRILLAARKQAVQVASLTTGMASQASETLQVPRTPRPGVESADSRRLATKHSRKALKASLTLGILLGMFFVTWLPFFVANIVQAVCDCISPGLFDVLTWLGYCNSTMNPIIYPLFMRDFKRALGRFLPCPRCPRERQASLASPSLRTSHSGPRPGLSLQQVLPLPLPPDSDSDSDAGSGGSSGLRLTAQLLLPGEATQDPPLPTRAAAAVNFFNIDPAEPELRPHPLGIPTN

Row | SMILES | natural forgetting (discrimination of novel versus familiar object) ([1]; Aricept 0.1 mg/kg i.p., 20 min pre-treatment, 4 h inter-trial interval) | natural forgetting (discrimination of novel versus familiar object) ([1]; Aricept 0.3 mg/kg i.p., 20 min pre-treatment, 4 h inter-trial interval) | discrimination ratio versus vehicle ([1]; Aricept 1 mg/kg i.p., 20 min pre-treatment) | natural forgetting (discrimination of novel versus familiar object) ([1]; Aricept 1 mg/kg i.p., 20 min pre-treatment, 4 h inter-trial interval, novel versus familiar p<0.001) | Ki (5-HT6 receptor) | natural forgetting (discrimination of novel versus familiar object) ([1]; Compound A 0.3 mg/kg i.p. combined with sub-efficacious dose (0.1 mg/kg i.p.) of Aricept, novel versus familiar p<0.01) | natural forgetting (discrimination of novel versus familiar object) ([1]; Compound A 0.3 mg/kg i.p. given alone) | natural forgetting (discrimination of novel versus familiar object) ([1]; Compound A 1 mg/kg i.p. combined with sub-efficacious dose (0.1 mg/kg i.p.) of Aricept, novel versus familiar p<0.05) | natural forgetting (discrimination of novel versus familiar object) ([1]; Compound A 1 mg/kg i.p. given alone) | natural forgetting (discrimination of novel versus familiar object) ([1]; Compound A 3 mg/kg i.p., 40 min pre-treatment, 4 h inter-trial interval, novel versus familiar p<0.001) | discrimination ratio versus vehicle ([1]; Compound A 3 mg/kg i.p., 40 min pre-treatment, p<0.05 repeated measures ANOVA) | natural forgetting (discrimination of novel versus familiar object) ([1]; Compound A 10 mg/kg i.p., 40 min pre-treatment, 4 h inter-trial interval, novel versus familiar p<0.01) | discrimination ratio versus vehicle ([1]; Compound A 10 mg/kg i.p., 40 min pre-treatment, p<0.05 repeated measures ANOVA)
1 | COc1cc2c(cc1OC)C(=O)C(CC1CCN(Cc3ccccc3)CC1)C2 (stereo not shown) [Aricept, donepezil, reference compound] | lacked effect | lacked effect | without significantly increasing the discrimination ratio | prevented natural forgetting | – | – | – | – | – | – | – | – | –
2 | COc1cc(Cl)cc(C(C)Nc2cc(N3CCNCC3)ccc2S(C)(=O)=O)c1OC.Cl (stereo not shown) [Compound A, [1-(5-Chloro-2,3-dimethoxy-phenyl)-ethyl]-(2-methanesulfonyl-5-piperazin-1-yl-phenyl)-amine hydrochloride] | – | – | – | – | 4 nM | restored discrimination | lacked significant effect | restored discrimination | lacked significant effect | prevented this natural forgetting | increased the discrimination ratio from vehicle levels | prevented this natural forgetting | increased the discrimination ratio from vehicle levels
